Among the data in ChEMBL document CHEMBL5620384, “6-Regioisomeric 5,8-quinolinediones as potent CDC25 inhibitors against colorectal cancers” (Eur J Med Chem, 2023) are viability and IC50 values, retold here.

SMILES strings stand for the structures.

One assay has as its system HCT-116. Kind of assay: Cytotoxicity against human HCT-116 cells assessed as cell survival measured at 2 uM after 72 hrs by MTS assay relative to control. Format: functional. The settings on record: read-out: Activity. (In general: Tetrazolium assays rely on reduction of a dye to a coloured formazan, in cell work by metabolically active cells.)
Assay [1] deals with DLD-1. Kind of assay: Cytotoxicity against human DLD-1 cells assessed as cell survival measured at 2 uM after 72 hrs by MTS assay relative to control. The assay is classed as functional. The following applies: read-out: Activity.
The subject of the next assay is SW480. The experiment in a line: Cytotoxicity against human SW480 cells assessed as cell survival measured at 2 uM after 72 hrs by MTS assay relative to control. The following applies: read-out: Activity. The assay is classed as functional.
For another assay, the system named is U-87 MG. Kind of assay: Cytotoxicity against human U-87 MG cells assessed as cell survival measured at 2 uM after 72 hrs by MTS assay relative to control. The assay is classed as functional, U-87MG ATCC. The settings on record: read-out: Activity.
The subject of assay [2] is MDA-MB-231. Kind of assay: Cytotoxicity against human MDA-MB-231 cells assessed as cell survival measured at 2 uM after 72 hrs by MTS assay relative to control. The assay is classed as functional. The settings on record: read-out: Activity.
The test system of a further assay is MCF7. The experiment in a line: Cytotoxicity against human MCF7 cells assessed as cell survival measured at 2 uM after 72 hrs by MTS assay relative to control. The assay is classed as functional. The following applies: read-out: Activity.
The subject of assay [3] is DLD-1. The experiment in a line: Cytotoxicity against human DLD1 cells assessed as growth inhibition after 72 hrs by MTS assay. The assay is classed as functional, cell-based. The following applies: DLD-1, 72 h.
Assay [4] has as its system MDA-MB-231. The experiment in a line: Cytotoxicity against human MDA-MB-231 cells assessed as growth inhibition after 72 hrs by MTS assay. Format: functional, cell-based. The settings on record: MDA-MB-231, 72 h.

The term IC50 denotes the midpoint of a concentration-inhibition curve.

On to `O=C1C(Cl)=C(NCCN2CCOCC2)C(=O)c2c1cccc2[N+](=O)[O-]`, for which the viability at 2 µM in the assay with HCT-116 was 100%; in the assay on DLD-1 [1], 93.2%; in the assay on SW480, 97.8%; with U-87 MG, 105%; in the assay on MDA-MB-231 [2] it was 98.2%; in the assay with MCF7, 109%.

Consider `O=C1C(NCCCCCN2CCOCC2)=C(Cl)C(=O)c2ncccc21`, for which the viability at 2 µM with HCT-116 is 13.7%; with DLD-1 [1], 30.5%; in the assay with SW480 it was 31%; in the assay on U-87 MG it was 49.8%; in the assay with MDA-MB-231 [2], 83.4%; in the assay with MCF7, 73.9%. Moreover, the IC50 in the assay with DLD-1 [3] worked out at 1940 nM; with MDA-MB-231 [4], 1190 nM.

For `O=C1C(Cl)=C(NCCCN2CCOCC2)C(=O)c2ncccc21`, the viability at 2 µM in the assay on HCT-116 was 56.3%; with DLD-1 [1] it was 67.7%; with SW480, 105%; in the assay with U-87 MG it was 76.8%; in the assay with MDA-MB-231 [2], 87.8%; in the assay with MCF7, 95.1%.

Regarding `O=C1C(NCCCN2CCOCC2)=C(Cl)C(=O)c2ncccc21`, the viability at 2 µM is 2.43% in the assay on HCT-116; 34.1% in the assay with DLD-1 [1]; 51.6% in the assay on SW480; 51.6% in the assay with U-87 MG; 90.4% in the assay on MDA-MB-231 [2]; 70.8% in the assay with MCF7. For the same compound, the half-maximal inhibitory concentration (IC50) with DLD-1 [3] was found to be 1940 nM; in the assay on MDA-MB-231 [4], 1140 nM.

Consider `O=C1C(Cl)=C(NCCN2CCOCC2)C(=O)c2cc([N+](=O)[O-])ccc21`, for which the viability at 2 µM worked out at 66% in the assay with HCT-116; 54.9% with DLD-1 [1]; 76.8% with SW480; 89.1% with U-87 MG; 66.8% in the assay on MDA-MB-231 [2]; 90.5% with MCF7.

`O=C1C(Cl)=C(NCCN2CCOCC2)C(=O)c2ccc([N+](=O)[O-])cc21`: the viability at 2 µM in the assay with HCT-116 was found to be 99.7%; in the assay with DLD-1 [1], 97.8%; in the assay with SW480 it was 94.2%; in the assay on U-87 MG, 106%; in the assay on MDA-MB-231 [2], 92.9%; in the assay with MCF7, 106%.

As to `O=C1C(Cl)=C(NCCN2CCOCC2)C(=O)c2cc(Cl)ccc21`, the viability at 2 µM with HCT-116 turned out to be 86.5%; in the assay on DLD-1 [1] it was 39.3%; in the assay on SW480 it was 105%; in the assay on U-87 MG it was 98.2%; in the assay on MDA-MB-231 [2], 91.3%; in the assay with MCF7, 94%.

For `O=C1C(Cl)=C(NCCCCCN2CCOCC2)C(=O)c2ncccc21`, the viability at 2 µM with HCT-116 stood at 59.7%; with DLD-1 [1], 78.9%; in the assay with SW480 it was 98.1%; with U-87 MG, 79.6%; in the assay with MDA-MB-231 [2], 85.9%; in the assay on MCF7 it was 84.7%.

On to `Nc1ccc2c(c1)C(=O)C(Cl)=C(NCCN1CCOCC1)C2=O`, for which the viability at 2 µM was 88.7% in the assay on HCT-116; 90.8% in the assay with DLD-1 [1]; 104% with U-87 MG; 99.7% with MDA-MB-231 [2]; 81.4% in the assay on MCF7.

`O=C1C(NCCN2CCOCC2)=C(Cl)C(=O)c2c1cccc2[N+](=O)[O-]`: the viability at 2 µM in the assay on HCT-116 was 86.3%; in the assay on DLD-1 [1], 59.9%; in the assay on SW480, 89.3%; in the assay on U-87 MG, 84.6%; in the assay on MDA-MB-231 [2] it was 99.3%; in the assay on MCF7, 88.9%.

For `O=C1C(NCCCCN2CCOCC2)=C(Cl)C(=O)c2ncccc21`, the viability at 2 µM was 4.18% in the assay on HCT-116; 42.2% in the assay with DLD-1 [1]; 105% in the assay with U-87 MG; 81.8% with MDA-MB-231 [2]; 92.8% in the assay on MCF7. The half-inhibitory concentration (IC50) was 1700 nM in the assay on DLD-1 [3] and 680 nM with MDA-MB-231 [4].

On to `O=C1C(Cl)=C(NCCN2CCOCC2)C(=O)c2cc(I)ccc21`, for which the viability at 2 µM was 82.4% in the assay with HCT-116; 1.7% in the assay on DLD-1 [1]; 84.3% in the assay with SW480; 59.3% in the assay with U-87 MG; 81.1% in the assay on MDA-MB-231 [2]; 102% in the assay on MCF7.

In the case of `O=C1C(Cl)=C(NCCCCN2CCOCC2)C(=O)c2ncccc21`, the viability at 2 µM with HCT-116 came out at 53.9%; in the assay with DLD-1 [1] it was 77.3%; in the assay with U-87 MG, 81.5%; with MDA-MB-231 [2], 88.6%.

On to `O=C1C(Cl)=C(NCCN2CCOCC2)C(=O)c2cc(Br)ccc21`, for which the viability at 2 µM in the assay on HCT-116 amounted to 86.8%; with DLD-1 [1], 10.3%; in the assay on SW480, 99.7%; in the assay on U-87 MG it was 86.8%; in the assay with MDA-MB-231 [2], 80.3%; in the assay with MCF7, 105%.

Turning to `Nc1cccc2c1C(=O)C(Cl)=C(NCCN1CCOCC1)C2=O`, the viability at 2 µM with HCT-116 stood at 98%; in the assay on DLD-1 [1], 91.3%; in the assay with SW480, 96%; in the assay on U-87 MG, 95.9%; in the assay with MDA-MB-231 [2], 98%; in the assay on MCF7, 98.9%.

Regarding `O=C1C(Cl)=C(NCCN2CCOCC2)C(=O)c2ccc(Cl)cc21`, the viability at 2 µM with HCT-116 was 93%; in the assay on DLD-1 [1], 91.5%; in the assay on SW480 it was 106%; in the assay on U-87 MG, 103%; with MDA-MB-231 [2] it was 95.9%; with MCF7, 101%.

With `O=C1C(Cl)=C(NCCN2CCOCC2)C(=O)c2ccc(Br)cc21`, the viability at 2 µM in the assay with HCT-116 came out at 89.3%; in the assay with DLD-1 [1] it was 75.6%; in the assay on SW480 it was 105%; in the assay with U-87 MG, 91.6%; in the assay with MDA-MB-231 [2], 85.4%; in the assay with MCF7, 100%.

`O=C1C(Cl)=C(NCCN2CCOCC2)C(=O)c2cnccc21`: the viability at 2 µM in the assay on HCT-116 worked out at 65.1%; with DLD-1 [1], 75.1%; in the assay with SW480, 100%; in the assay with U-87 MG, 89.3%; in the assay with MDA-MB-231 [2], 85.2%; in the assay with MCF7, 16.4%.

Take `O=C1C(Cl)=C(NCCN2CCOCC2)C(=O)c2ccccc21`: the viability at 2 µM in the assay with HCT-116 was found to be 90.1%; in the assay on DLD-1 [1] it was 97.6%; in the assay with SW480, 100%; in the assay on U-87 MG, 99%; with MDA-MB-231 [2] it was 89.8%; in the assay on MCF7, 103%.

For `O=C1C(Cl)=C(NCCN2CCOCC2)C(=O)c2ccc(I)cc21`, the viability at 2 µM with HCT-116 worked out at 94.4%; in the assay with DLD-1 [1], 82.1%; with SW480, 111%; in the assay with U-87 MG, 104%; with MDA-MB-231 [2], 91%; in the assay on MCF7, 104%.
